The structures appear in SMILES notation. In brackets after ≈: the same amount, converted by molar mass.

Common to all, as to format: functional
The test system of one experiment is Escherichia coli. The experiment in a line: Antimicrobial activity against Escherichia coli MTCC 443 after 24 hr by serial broth dilution method. Particulars: MTCC 443, 24 h. Background: In broth dilution the organism is exposed to a series of concentrations in liquid medium.
For a further experiment, the system named is Streptococcus pyogenes. Briefly: Antimicrobial activity against Streptococcus pyogenes MTCC 442 after 24 hr by serial broth dilution method. As to conditions: MTCC 442, 24 h.
A further experiment has as its system Pseudomonas aeruginosa. The experiment in a line: Antimicrobial activity against Pseudomonas aeruginosa MTCC 1688 after 24 hr by serial broth dilution method. Particulars: MTCC 1688, 24 h.
The next experiment concerns Staphylococcus aureus. The experiment in a line: Antimicrobial activity against Staphylococcus aureus MTCC 96 after 24 hr by serial broth dilution method. As to conditions: MTCC 96, 24 h.
The test system of the next experiment is Candida albicans. The experiment in a line: Antimicrobial activity against Candida albicans MTCC 227 after 72 hr by serial broth dilution method. As to conditions: MTCC 227, 72 h.
In a further experiment the test system is Aspergillus clavatus. Briefly: Antimicrobial activity against Aspergillus clavatus MTCC 1323 after 72 hr by serial broth dilution method. Particulars: MTCC 1323, 72 h.
The next experiment deals with Aspergillus niger. Briefly: Antimicrobial activity against Aspergillus niger MTCC 282 after 72 hr by serial broth dilution method. Particulars: MTCC 282, 72 h.

On to `Nc1ccc(C2=CC(c3ccc(O)cc3)NC(S)=N2)cc1` (configuration not stated), for which the MIC with Escherichia coli and against Streptococcus pyogenes was 250 µg/mL (≈ 841 µM) each time.

For `COc1cc(C2C=C(c3ccc(N)cc3)N=C(S)N2)ccc1O` (configuration not stated), the MIC against Escherichia coli and in the experiment with Streptococcus pyogenes was 250 µg/mL (≈ 764 µM) throughout.

As for `Nc1ccc(C2=CC(c3ccccc3)NC(S)=N2)cc1` (configuration not stated), it took 250 µg/mL (≈ 888 µM) to inhibit growth against Pseudomonas aeruginosa (MIC).

`COc1ccc(C2C=C(c3ccc(N)cc3)N=C(S)N2)cc1` (configuration not stated): it took 250 µg/mL (≈ 803 µM) to inhibit growth with Pseudomonas aeruginosa (MIC).

For the molecule `N#CCCCSC1=NC(c2ccc(N)cc2)=CC(c2ccccc2)N1` (configuration not stated), the minimum inhibitory concentration (MIC) with Escherichia coli was 500 µg/mL (≈ 1430 µM); with Staphylococcus aureus it was 500 µg/mL (≈ 1430 µM); in the experiment on Pseudomonas aeruginosa, 50 µg/mL (≈ 143 µM); in the experiment on Streptococcus pyogenes, 1000 µg/mL (≈ 2870 µM); against Candida albicans, 1000 µg/mL (≈ 2870 µM); against Aspergillus clavatus it was 1000 µg/mL (≈ 2870 µM). In the experiment with Aspergillus niger, it took 100 µg/mL (≈ 287 µM) to inhibit growth (MIC).

In the case of `N#CCCCSC1=NC(c2ccc(N)cc2)=CC(c2ccc(Cl)cc2)N1` (configuration not stated), the MIC came out at 100 µg/mL (≈ 261 µM) in the experiment with Escherichia coli; 500 µg/mL (≈ 1310 µM) with Staphylococcus aureus; 100 µg/mL (≈ 261 µM) with Pseudomonas aeruginosa; 100 µg/mL (≈ 261 µM) against Streptococcus pyogenes; 1000 µg/mL (≈ 2610 µM) against Candida albicans; 100 µg/mL (≈ 261 µM) in the experiment with Aspergillus clavatus. The MIC against Aspergillus niger is 500 µg/mL (≈ 1310 µM).

On to `N#CCCCSC1=NC(c2ccc(N)cc2)=CC(c2ccccc2O)N1` (configuration not stated), for which the minimum inhibitory concentration (MIC) came to 50 µg/mL (≈ 137 µM) in the experiment on Escherichia coli; 250 µg/mL (≈ 686 µM) against Staphylococcus aureus; 250 µg/mL (≈ 686 µM) with Pseudomonas aeruginosa; 100 µg/mL (≈ 274 µM) against Streptococcus pyogenes; 200 µg/mL (≈ 549 µM) in the experiment on Candida albicans; 500 µg/mL (≈ 1370 µM) in the experiment on Aspergillus clavatus. In the experiment with Aspergillus niger, this molecule yielded an MIC of 100 µg/mL (≈ 274 µM).

For the molecule `N#CCCCSC1=NC(c2ccc(N)cc2)=CC(c2cccc(O)c2)N1` (configuration not stated), the MIC in the experiment with Escherichia coli was 500 µg/mL (≈ 1370 µM); against Staphylococcus aureus, 250 µg/mL (≈ 686 µM); in the experiment with Pseudomonas aeruginosa it was 500 µg/mL (≈ 1370 µM); with Streptococcus pyogenes it was 200 µg/mL (≈ 549 µM); in the experiment with Candida albicans, 50 µg/mL (≈ 137 µM); in the experiment on Aspergillus clavatus it was 500 µg/mL (≈ 1370 µM). The same molecule returned an MIC against Aspergillus niger of 500 µg/mL (≈ 1370 µM).

As for `N#CCCCSC1=NC(c2ccc(N)cc2)=CC(c2ccc(O)cc2)N1` (configuration not stated), the minimal inhibitory concentration (MIC) is 25 µg/mL (≈ 68.6 µM) with Escherichia coli; 500 µg/mL (≈ 1370 µM) against Staphylococcus aureus; 1000 µg/mL (≈ 2740 µM) in the experiment with Pseudomonas aeruginosa; 50 µg/mL (≈ 137 µM) against Streptococcus pyogenes; 500 µg/mL (≈ 1370 µM) with Candida albicans; 200 µg/mL (≈ 549 µM) against Aspergillus clavatus. The same molecule displayed an MIC against Aspergillus niger of 500 µg/mL (≈ 1370 µM).

For `N#CCCCSC1=NC(c2ccc(N)cc2)=CC(c2ccc([N+](=O)[O-])cc2)N1` (configuration not stated), the MIC in the experiment on Escherichia coli amounted to 500 µg/mL (≈ 1270 µM); with Staphylococcus aureus it was 500 µg/mL (≈ 1270 µM); with Pseudomonas aeruginosa, 100 µg/mL (≈ 254 µM); in the experiment on Streptococcus pyogenes, 500 µg/mL (≈ 1270 µM); against Candida albicans, 500 µg/mL (≈ 1270 µM); with Aspergillus clavatus, 200 µg/mL (≈ 508 µM). The molecule further gave an MIC against Aspergillus niger of 50 µg/mL (≈ 127 µM).

For the molecule `COc1cc(C2C=C(c3ccc(N)cc3)N=C(SCCCC#N)N2)ccc1O` (configuration not stated), the minimum inhibitory concentration (MIC) worked out at 25 µg/mL (≈ 63.4 µM) against Escherichia coli; 250 µg/mL (≈ 634 µM) in the experiment on Staphylococcus aureus; 100 µg/mL (≈ 253 µM) against Pseudomonas aeruginosa; 100 µg/mL (≈ 253 µM) with Streptococcus pyogenes; 100 µg/mL (≈ 253 µM) in the experiment with Candida albicans; 100 µg/mL (≈ 253 µM) in the experiment on Aspergillus clavatus. In the experiment with Aspergillus niger, the MIC was found to be 100 µg/mL (≈ 253 µM).

Turning to `Cc1ccccc1C1C=C(c2ccc(N)cc2)N=C(SCCCC#N)N1` (configuration not stated), the minimal inhibitory concentration (MIC) against Escherichia coli was 500 µg/mL (≈ 1380 µM); against Staphylococcus aureus, 1000 µg/mL (≈ 2760 µM); with Pseudomonas aeruginosa it was 250 µg/mL (≈ 690 µM); in the experiment with Streptococcus pyogenes it was 1000 µg/mL (≈ 2760 µM); against Candida albicans it was 1000 µg/mL (≈ 2760 µM); against Aspergillus clavatus, 1000 µg/mL (≈ 2760 µM). The same molecule had an MIC in the experiment on Aspergillus niger of 500 µg/mL (≈ 1380 µM).

As to `Cc1cccc(C2C=C(c3ccc(N)cc3)N=C(SCCCC#N)N2)c1` (configuration not stated), the MIC against Escherichia coli was found to be 1000 µg/mL (≈ 2760 µM); against Staphylococcus aureus it was 1000 µg/mL (≈ 2760 µM); in the experiment with Pseudomonas aeruginosa, 500 µg/mL (≈ 1380 µM); in the experiment with Streptococcus pyogenes, 500 µg/mL (≈ 1380 µM); in the experiment with Candida albicans it was 1000 µg/mL (≈ 2760 µM); in the experiment on Aspergillus clavatus it was 1000 µg/mL (≈ 2760 µM). This molecule also displayed an MIC against Aspergillus niger of 500 µg/mL (≈ 1380 µM).

On to `Cc1ccc(C2C=C(c3ccc(N)cc3)N=C(SCCCC#N)N2)cc1` (configuration not stated), for which the MIC in the experiment with Escherichia coli worked out at 100 µg/mL (≈ 276 µM); in the experiment with Staphylococcus aureus, 50 µg/mL (≈ 138 µM); in the experiment on Pseudomonas aeruginosa, 500 µg/mL (≈ 1380 µM); in the experiment on Streptococcus pyogenes, 500 µg/mL (≈ 1380 µM); with Candida albicans, 1000 µg/mL (≈ 2760 µM); against Aspergillus clavatus it was 100 µg/mL (≈ 276 µM). The molecule also returned a minimal inhibitory concentration (MIC) in the experiment on Aspergillus niger of 50 µg/mL (≈ 138 µM).

Regarding `COc1ccc(C2C=C(c3ccc(N)cc3)N=C(SCCCC#N)N2)cc1` (configuration not stated), the MIC against Escherichia coli worked out at 100 µg/mL (≈ 264 µM); against Staphylococcus aureus it was 100 µg/mL (≈ 264 µM); against Pseudomonas aeruginosa it was 25 µg/mL (≈ 66.1 µM); with Streptococcus pyogenes, 500 µg/mL (≈ 1320 µM); against Candida albicans, 500 µg/mL (≈ 1320 µM); against Aspergillus clavatus it was 50 µg/mL (≈ 132 µM). In the experiment with Aspergillus niger, this molecule had an MIC of 200 µg/mL (≈ 528 µM).

For the molecule `CN(C)c1ccc(C2C=C(c3ccc(N)cc3)N=C(SCCCC#N)N2)cc1` (configuration not stated), the MIC was determined as 500 µg/mL (≈ 1280 µM) in the experiment with Escherichia coli; 250 µg/mL (≈ 638 µM) against Staphylococcus aureus; 250 µg/mL (≈ 638 µM) against Pseudomonas aeruginosa; 1000 µg/mL (≈ 2550 µM) with Streptococcus pyogenes; 1000 µg/mL (≈ 2550 µM) in the experiment with Candida albicans; 1000 µg/mL (≈ 2550 µM) with Aspergillus clavatus. In addition, in the experiment on Aspergillus niger, the MIC turned out to be 500 µg/mL (≈ 1280 µM).

For `CC1(C)S[C@@H]2[C@H](NC(=O)[C@H](N)c3ccccc3)C(=O)N2[C@H]1C(=O)O` [AMPICILLIN], the MIC in the experiment with Escherichia coli is 100 µg/mL (≈ 286 µM); in the experiment with Staphylococcus aureus it was 250 µg/mL (≈ 715 µM); in the experiment on Pseudomonas aeruginosa, 100 µg/mL (≈ 286 µM); against Streptococcus pyogenes, 100 µg/mL (≈ 286 µM).

With `COC1=CC(=O)C[C@@H](C)[C@]12Oc1c(Cl)c(OC)cc(OC)c1C2=O` [GRISEOFULVIN], the MIC in the experiment on Candida albicans was 500 µg/mL (≈ 1420 µM); in the experiment on Aspergillus clavatus, 100 µg/mL (≈ 283 µM); in the experiment on Aspergillus niger it was 100 µg/mL (≈ 283 µM).

The term MIC denotes the smallest concentration in the dilution series that meets the test's criterion for growth inhibition. Low values mean a more susceptible organism, high ones a less susceptible organism.
